Laboratory results as given in paper PMC4281461, “Pharmacokinetic Comparative Study of Gastrodin and Rhynchophylline after Oral Administration of Different Prescriptions of Yizhi Tablets in Rats by an HPLC-ESI/MS Method” (Evidence-based Complementary and Alternative Medicine : eCAM, 2014).
Where two headings read alike, the source gives them in different places.

Experiments:
[1] = Stability of GAS, HBA and RIN spiked into rat plasma (HPLC-MS); assay type: physicochemical; conditions: for Stability (RE, %) 20°C/24 h / Stability (RE, %) Freeze-thaw (3 cycles) / Stability (RE, %) −80°C/20 days: rat plasma, n = 3; for stability spiked into rat plasma: room temperature (22–25°C) for 24 h, −80°C for 20 days, three freeze/thaw cycles
Description: The stability experiments on GAS, HBA, and RIN were performed at three concentrations of the QC samples, using three replicates at each concentration (10, 50, and 100 μg/mL for GAS and HBA and 1, 5, and 10 μg/mL for RIN). Short-term stability was determined after exposure of the spiked samples at room temperature for 24 h. The freeze/thaw stability was evaluated after three complete freeze/thaw cycles (−80°C) on consecutive days. Long-term stability was assessed after storage of the standard spiked plasma samples at −80°C for 20 days. Postextraction stability was determined after the extracted samples had been stored in the autosampler pending analysis at the temperature of the autoinjector (4°C) for 24 h. The analytes were considered stable in the biological matrix when 85–115% (RE) of the initial concentration was found.

[2] = Plasma pharmacokinetics in rats after oral administration of Yizhi tablets, EPT or EPG (HPLC-ESI/MS); assay type: in vivo, Sprague-Dawley rats; conditions: for AUC(0-inf) / CL/F / Cmax / Tmax / MRT last / MRT inf / AUC(0-t): male, Sprague-Dawley; for MRT last: read-out: MRT(0–t) (converted); for MRT inf: read-out: MRT(0–∞) (converted)
Description: Male Sprague-Dawley rats (weight: 220 ± 30 g) were purchased from the animal laboratory centre at Tsinghua University (Beijing, China). All animals were maintained in an environmentally controlled room under controlled temperature (22–25°C) and relative humidity (50 ± 5%) on 12 h light/dark cycles (lights on from 08:00 to 20:00). Experiments were conducted in a specific pathogen-free (SPF) grade laboratory, according to the guidelines of the Guiding Principles for the Care and Use of Laboratory Animals approved by the Committee for Animal Experiments at Tsinghua University (Beijing, China). The animals were acclimated for one week before use. Standard diet and water were provided to the rats ad libitum.
Yizhi tablets were prepared by mixing Yizhi tablet powder (9 g) in 10 mL 5% CMC-Na with a magnetic stirring apparatus. The concentration of effective parts of tianma (EPT, total saponins from Gastrodiae) and gouteng (EPG, rhynchophylla alkaloids) was equivalent to that in a Yizhi tablet. The three different suspensions were shacked uniformly before administration.
The rats were randomly assigned to one of three groups (1–3), representing the groups administered with EPT, EPG, and Yizhi, respectively. Each group contained six rats. The rats fasted overnight with free access to water before dose administration. After a single dose was administered by oral gavage, blood samples (0.5 mL) were collected in heparinized tubes via the orbital vein at 0 min, 10 min, 20 min, 30 min, 45 min, 1 h, 2 h, 4 h, 6 h, 8 h, and 12 h. All blood samples were centrifuged at 3000 rpm for 15 min to collect plasma. The plasma samples obtained were stored at −20°C until analysis. Along with the plasma samples, quality control (QC) samples were distributed among calibrators and unknown samples in the analytical run. All of the blank samples used as controls were prepared by the same method as drug-containing samples.
To 200 μL of thawed plasma, 25 μL aqueous ammonia and 800 μL ether were added. The supernatant was separated and dried under nitrogen gas at 37°C after vortexing for 1 min and centrifuging at 10,000 g for 15 min at 4°C. The residues were reconstituted in 50 μL of methanol and centrifuged at 15,000 g for 15 min. A 20 μL aliquot of the supernatant was injected into the HPLC-MS system for analysis of RIN. To the residue, 800 μL methanol was added. The supernatant was separated and evaporated to dryness under nitrogen at room temperature after being vortexed for 3 min and centrifuged at 10,000 g for 15 min. The residue was reconstituted in 50 μL of the initial mobile phase and centrifuged at 15,000 g for 15 min. 20 μL aliquot of the supernatant was injected into the HPLC-MS system for analysis of GAS and HBA.
Yizhi tablets, EPT, and EPG were separately suspended in 0.5% carboxymethylcellulose solution and administered orally to six conscious rats at doses of 9 g/kg for Yizhi tablets, 5.4 g/kg for EPT, and 3.6 g/kg for EPG, respectively. Blood samples were collected from the retroorbital plexus of rats under light anaesthesia with ether. Blood samples were collected in microfuge tubes containing heparin as an anticoagulant at 0 min, 10 min, 20 min, 30 min, 45 min, 1 h, 2 h, 4 h, 6 h, 8 h, and 12 h after treatment. Plasma was harvested by centrifuging blood samples at 3500 ×g for 10 min and stored at −80°C until analysis. The concentrations of GAS, HBA, and RIN in plasma were determined as described above. QC samples were distributed among calibrators and samples in the analytical run to adjust the error.
The pharmacokinetic parameters, such as area under the plasma concentration-time curve (AUC), maximum plasma concentration (C max), corresponding time (T max) and half-life (T 1/2), plasma clearance (CL), mean residence time (MRT), and initial plasma concentration (C 0) for orally administered dose, were performed on each individual set using the software of Kinetica (Version 5.0, Thermo Electron Corp., MA, USA) by the noncompartmental model. […]

[3] = in vivo, rat plasma, oral EPT 5.4 g/kg, n = 6
[4] = in vivo, rat plasma, oral Yizhi tablets 9 g/kg, n = 6
[5] = rat, in vivo, po, 9 g/kg, oral Yizhi tablets 9 g/kg, n = 6
[6] = rat, in vivo, po, 9 g/kg, text value matching the Yizhi tablet group (oral 9 g/kg)
[7] = rat plasma, oral EPT 5.4 g/kg, n = 6
[8] = rat plasma, oral Yizhi tablets 9 g/kg, n = 6
[9] = in vivo, rat plasma, oral EPG 3.6 g/kg, n = 6

| Structure (SMILES) | Stability (RE, %) 20°C/24 h ([1]; 10 μg/mL) [%] | Stability (RE, %) Freeze-thaw (3 cycles) ([1]; 10 μg/mL) [%] | Stability (RE, %) −80°C/20 days ([1]; 10 μg/mL) [%] | Stability (RE, %) 20°C/24 h ([1]; 50 μg/mL) [%] | Stability (RE, %) Freeze-thaw (3 cycles) ([1]; 50 μg/mL) [%] | Stability (RE, %) −80°C/20 days ([1]; 50 μg/mL) [%] | Stability (RE, %) 20°C/24 h ([1]; 100 μg/mL) [%] | Stability (RE, %) Freeze-thaw (3 cycles) ([1]; 100 μg/mL) [%] | Stability (RE, %) −80°C/20 days ([1]; 100 μg/mL) [%] | stability spiked into rat plasma [1] | AUC(0-inf) [2, 4] [ng·h/mL] | CL/F [2, 4] [mL/min/kg] | Cmax [2, 4] [ng/mL] | Tmax [2, 4] [h] | MRT last [2, 4] [h] | MRT inf [2, 4] [h] | AUC(0-t) [2, 5] [ng·h/mL] | AUC(0-t) [2, 6] [ng·h/mL] | also measured |
| --- | --- | --- | --- | --- | --- | --- | --- | --- | --- | --- | --- | --- | --- | --- | --- | --- | --- | --- | --- |
| OCc1ccc(O[C@@H]2O[C@H](CO)[C@@H](O)[C@H](O)[C@H]2O)cc1 [GAS, Gastrodin] | 9.35 | 5.36 | 4.38 | 3.17 | 4.12 | 6.95 | 3.93 | 8.26 | 8.01 | stable | 249000 | 3.5 ± 0.1 | 141000 ± 19000 | 0.75 | 2.69 | 3.29 | 230000 | 230000 | AUC(0-inf) [2, 3]: 367000 ng·h/mL; CL/F [2, 3]: 2.32 ± 0.25 mL/min/kg; Cmax [2, 3]: 188000 ± 19300 ng/mL; Tmax [2, 3]: 0.361 h; MRT last [2, 3]: 2.03 h; MRT inf [2, 3]: 2.21 h; AUC(0-t) ([2]; rat, in vivo, po, 5.4 g/kg, oral EPT 5.4 g/kg, n = 6): 359000 ng·h/mL; MRT change when coadministered with Yizhi tablet ([2]; rat plasma, Yizhi tablet group versus EPT group): 1.32 fold; time of first of two successive maximum plasma concentrations ([2]; rat plasma, oral Yizhi tablets): 45 min; time of second of two successive maximum plasma concentrations ([2]; rat plasma, oral Yizhi tablets): 120 min |
| OCc1ccc(O)cc1 [HBA, p-hydroxybenzyl alcohol] | 4.69 | 2.65 | 4.58 | 2.65 | 4.65 | 5.63 | 3.17 | 7.03 | 7.15 | stable | – | – | – | – | – | – | – | – | AUC(0-inf) [2, 7]: 34700 ng·h/mL; AUC(0-t) [2, 7]: 27600 ng·h/mL; Cmax [2, 7]: 9120 ± 610 ng/mL; Tmax [2, 7]: 1 h; MRT last [2, 7]: 2.57 h; MRT inf [2, 7]: 3.98 h; AUC(0-inf) [2, 8]: 52200 ng·h/mL; AUC(0-t) [2, 8]: 37800 ng·h/mL; Cmax [2, 8]: 10400 ± 3020 ng/mL; Tmax [2, 8]: 0.917 h; MRT last [2, 8]: 4.44 h; MRT inf [2, 8]: 9.22 h; bioavailability in Yizhi tablet group compared with EPT alone ([2]; rat plasma, increased AUC, longer MRT (P < 0.01), higher C max): higher bioavailability |
| CC[C@H]1CN2CC[C@]3(C(=O)Nc4ccccc43)[C@@H]2C[C@@H]1/C(=C\OC)C(=O)OC [RIN, rhynchophylline] | 9.35 | 4.56 | 5.49 | – | – | – | – | – | – | stable | 32000 | 2.18 ± 0.46 | 6500 ± 1440 | 4 | 3.72 | 4.59 | 29700 | 29700 | Stability (RE, %) 20°C/24 h ([1]; 1 μg/mL): 8.63%; Stability (RE, %) Freeze-thaw (3 cycles) ([1]; 1 μg/mL): 7.18%; Stability (RE, %) −80°C/20 days ([1]; 1 μg/mL): 6.88%; Stability (RE, %) 20°C/24 h ([1]; 5 μg/mL): 7.65%; Stability (RE, %) Freeze-thaw (3 cycles) ([1]; 5 μg/mL): 8.08%; Stability (RE, %) −80°C/20 days ([1]; 5 μg/mL): 8.04%; AUC(0-inf) [2, 9]: 43400 ng·h/mL; CL/F [2, 9]: 1.55 ± 0.13 mL/min/kg; Cmax [2, 9]: 6170 ± 380 ng/mL; Tmax [2, 9]: 3.67 h; MRT last [2, 9]: 4.78 h; MRT inf [2, 9]: 5.59 h; AUC(0-t) ([2]; rat, in vivo, po, 3.6 g/kg, oral EPG 3.6 g/kg): 40200 ng·h/mL; AUC(0-t) ([2]; rat, in vivo, po, 3.6 g/kg, oral EPG 3.6 g/kg, n = 6): 40200 ng·h/mL; delay of T max ([2]; rat plasma, Yizhi tablets versus EPG alone): 0.333 h |
